Source: patent US4410513A, “Synthetic peptides having pituitary growth hormone releasing activity” (Beckman Instruments, Inc., priority 1981, dated 1983)
Non-standard residues stand in square brackets, D forms with d. Residues, ends and D or L forms follow the SMILES beside them.

Assays:
pituitaries = test: In vitro growth hormone release study (incubated rat pituitaries, GH by RIA); type: cell-based
Procedure: Female rats at the CD-1 strain were housed in a constant temperature room at 24° C. with 14 hours light and 10 hours darkness. The rats were fed Purina brand rat chow ab libitum. All studies were started between 0800 and 1000 hours.
Pituitaries were removed from 20 day old female rats. In each polytetrafluoroethylene beaker (10 ml) was incubated two pituitaries at 36° C. in 1 ml of lactated Ringer's solution in a Dubnoff Shaker (90 cycles/min.). All medium in each beaker was removed each hour (e.g., P1, P2, I3, I4, I5) and then fresh medium was added back to each beaker. Each medium removed was assayed for GH, in duplicate, by a standard radioimmunoassay (RIA).
The growth hormone agonist of Example 1 was not added to the incubation mediums employed during the first hour of the incubation period (P1) or to the incubation mediums employed during the second hour of the incubation period (P2). The growth hormone agonist of Example 1 was dissolved in dimethylsulfoxide (DMSO; 10:1, agonist:DMSO), added to each incubation medium employed during the third hour of the incubation period (I3), to each medium employed during the fourth hour of the incubation period (I4) and to each medium employed during the fifth hour of the incubation period (I5). The release of growth hormone was recorded as ΔGH and calculated by subtracting the amount of GH released at P2 from that released at I3, I4, and I5. The agonist activity was determined from the release at I3, I4, and I5.
The procedure set forth in Example 11 with one modification was employed in an in vitro growth hormone release study of the peptide of Example 6 and the results therefrom are set forth in Table XI. The sole modification was the deletion of I5 from the procedure of Example 11.
The procedure set forth in Example 11 with one modification was employed in an in vitro growth hormone release study of the peptide of Example 7 and the results therefrom are set forth in Table XII. The sole modification was the deletion of I5 from the procedure of Example 11.

growth hormone release = test: In vivo growth hormone release study (serum GH by RIA about 15 minutes after intraperitoneal injection); parameters: species or system rat; settings: 21 day old female rats, serum about 15 minutes after injection, mean of 8 ± SEM, control 4 ± 1
Procedure: Female rats of the CD-1 strain were housed in a constant temperature room at 24° C. with 14 hours light and 10 hours darkness. The rats were fed Purina brand rat chow ab libitum. All studies were started between 0800 and 1000 hours.
Each female rat (21 days old; eight rats per dosage level shown in Table XVI) was intraperitoneally injected with a desired dosage of the peptide of Example 1. Approximately 15 minutes after injection, the rat was guillotined. A blood sample was collected from the guillotined rat. The blood sample was centrifuged and a serum sample was collected therefrom. Each serum sample was assayed for GH, in duplicate, by a standard radioimmunoassay (RIA).

[1] = dosage 1 ng/ml incubation medium, mean of 9 assays (I3, I4, I5 minus P2) ± SEM
[2] = dosage 3 ng/ml incubation medium, mean of 9 assays (I3, I4, I5 minus P2) ± SEM
[3] = dosage 10 ng/ml incubation medium, mean of 9 assays (I3, I4, I5 minus P2) ± SEM
[4] = dosage 30 ng/ml incubation medium, mean of 9 assays (I3, I4, I5 minus P2) ± SEM
[5] = dosage 100 ng/ml incubation medium, mean of 9 assays (I3, I4, I5 minus P2) ± SEM
[6] = dosage 1,000 ng/ml incubation medium, mean of 9 assays (I3, I4, I5 minus P2) ± SEM

With `C[C@H](NC(=O)[C@@H](Cc1c[nH]c2ccccc12)NC(=O)[C@@H](N)Cc1c[nH]cn1)C(=O)N[C@@H](Cc1c[nH]c2ccccc12)C(=O)N[C@H](Cc1ccccc1)C(N)=O` [Example 1, H2 -His-D-Trp-Ala-Trp-D-Phe-NH2] (H-H[dW]AW[dF]-NH2) the ΔGH (pituitaries; [1]) was 206 ng/mL, the ΔGH (pituitaries; [2]) was 288 ng/mL and the ΔGH (pituitaries; [3]) was 2,005 ng/ml. The ΔGH (pituitaries; [4]) was 3,046 ng/ml, the ΔGH (growth hormone release; dosage 0.1 (μg/ml serum)) was 1 ± 1 ng/mL and the ΔGH (growth hormone release; dosage 1.0 (μg/ml serum)) was 2 ± 2 ng/mL. The ΔGH (growth hormone release; dosage 10.0 (μg/ml serum)) was 2 ± 1 ng/mL and the ΔGH (growth hormone release; dosage 100.0 (μg/ml serum)) was 82 ± 18 ng/mL.

Molecule `C[C@H](NC(=O)[C@@H](Cc1c[nH]c2ccccc12)NC(=O)[C@@H](N)Cc1ccc(O)cc1)C(=O)N[C@@H](Cc1c[nH]c2ccccc12)C(=O)N[C@H](Cc1c[nH]cn1)C(N)=O` [Example 2, H2 -Tyr-D-Trp-Ala-Trp-D-His-NH2] (H-Y[dW]AW[dH]-NH2) has a ΔGH (pituitaries; [1]) of -179 ng/mL, a ΔGH (pituitaries; [2]) of -192 ng/mL and a ΔGH (pituitaries; [3]) of -802 ng/mL. It also gave a ΔGH (pituitaries; [4]) of 611 ng/mL.

`C[C@H](NC(=O)[C@@H](Cc1c[nH]c2ccccc12)NC(=O)[C@@H](N)Cc1c[nH]cn1)C(=O)N[C@@H](Cc1c[nH]c2ccccc12)C(=O)N[C@H](Cc1ccc(O)cc1)C(N)=O` [Example 3, H2 -His-D-Trp-Ala-Trp-D-Tyr-NH2] (H-H[dW]AW[dY]-NH2) was tested, and the ΔGH (pituitaries; [1]) was -126 ng/mL, the ΔGH (pituitaries; [3]) was -99 ng/mL and the ΔGH (pituitaries; [5]) was -238 ng/mL. The ΔGH (pituitaries; [6]) was 2598 ng/mL.

For `C[C@H](NC(=O)[C@@H](Cc1c[nH]c2ccccc12)NC(=O)[C@@H](N)Cc1c[nH]cn1)C(=O)N[C@@H](Cc1c[nH]c2ccccc12)C(=O)N[C@H](Cc1c[nH]cn1)C(N)=O` [Example 4, H2 -His-D-Trp-Ala-Trp-D-His-NH2] (H-H[dW]AW[dH]-NH2), the ΔGH (pituitaries; [1]) was -166 ng/mL, the ΔGH (pituitaries; [3]) was -369 ng/mL and the ΔGH (pituitaries; [5]) was 43 ng/mL. For the same molecule, the ΔGH (pituitaries; [6]) was 1501 ng/mL.

With `C[C@@H](NC(=O)[C@@H](Cc1c[nH]c2ccccc12)NC(=O)[C@@H](N)Cc1ccc(O)cc1)C(=O)N[C@@H](Cc1c[nH]c2ccccc12)C(=O)N[C@H](Cc1ccccc1)C(N)=O` [Example 6, H2 -Tyr-D-Trp-D-Ala-Trp-D-Phe-NH2] (H-Y[dW][dA]W[dF]-NH2) the ΔGH (pituitaries; dosage 300 ng/ml incubation medium, I5 deleted, mean of 6 assays (I3, I4 minus P2) ± SEM) was 648 ± 210 ng/mL, the ΔGH (pituitaries; dosage 3,000 ng/ml incubation medium, I5 deleted, mean of 6 assays (I3, I4 minus P2) ± SEM) was 435 ± 143 ng/mL and the ΔGH (pituitaries; dosage 30,000 ng/ml incubation medium, I5 deleted, mean of 6 assays (I3, I4 minus P2) ± SEM) was 1136 ± 190 ng/mL.

With `CC(=O)N[C@@H](Cc1ccc(O)cc1)C(=O)N[C@H](Cc1c[nH]c2ccccc12)C(=O)N[C@@H](C)C(=O)N[C@@H](Cc1c[nH]c2ccccc12)C(=O)N[C@H](Cc1ccccc1)C(N)=O` [Example 9, CH3 CO-Tyr-D-Trp-Ala-Trp-D-Phe-NH2] (Ac-Y[dW]AW[dF]-NH2) the ΔGH (pituitaries; [3]) was -297 ± 79 ng/mL, the ΔGH (pituitaries; [4]) was -118 ± 97 ng/mL and the ΔGH (pituitaries; dosage 300 ng/ml incubation medium, mean of 9 assays (I3, I4, I5 minus P2) ± SEM) was 5 ± 29 ng/mL. It also gave a ΔGH (pituitaries; dosage 3,000 ng/ml incubation medium, mean of 9 assays (I3, I4, I5 minus P2) ± SEM) of 1594 ± 385 ng/mL and a ΔGH (pituitaries; dosage 30,000 ng/ml incubation medium, mean of 9 assays (I3, I4, I5 minus P2) ± SEM) of 1607 ± 250 ng/mL.
